Laboratory results from PubChem BioAssay (NCI).
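GI50 = concentration required for 50% inhibition of growth. TGI denotes the concentration required for complete inhibition of growth.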

Key:
Test in all cases: NCI-60 cell line screen, 384-well format
[1] = system: OVCAR-4 ovarian
[2] = system: SR leukemia
[3] = system: T-47D breast
[4] = system: MDA-MB-231 breast
[5] = system: A549 NSCLC
[6] = system: A498 renal
[7] = system: OVCAR-3 ovarian
[8] = system: HT29 colon
[9] = system: U251 glioblastoma
[10] = system: DU-145 prostate
[11] = system: SF-295 CNS
[12] = system: SK-MEL-5 melanoma
[13] = system: MCF7 breast
[14] = system: SK-OV-3 ovarian
[15] = system: NCI-H522 lung
[16] = system: SF-268 CNS
[17] = system: SK-MEL-28 melanoma
[18] = system: NCI-H23 lung
[19] = system: HS 578T breast
[20] = system: HCT-116 colon
[21] = system: SF-539 CNS
[22] = system: UACC-62 melanoma
[23] = system: MDA-MB-435 melanoma
[24] = system: SN12C renal
[25] = system: OVCAR-5 ovarian
[26] = system: MOLT-4 leukemia
[27] = system: HOP-62 NSCLC
[28] = system: KM12 colon
[29] = system: NCI-H322M lung
[30] = system: SNB-75 CNS
[31] = system: NCI-H226 lung
[32] = system: NCI-H460 NSCLC
[33] = system: CAKI-1 renal
[34] = system: IGROV1 ovarian
[35] = system: MALME-3M melanoma
[36] = system: TK-10 renal
[37] = system: MDA-MB-468 breast
[38] = system: 786-0 renal
[39] = system: UACC-257 melanoma
[40] = system: PC-3 prostate
[41] = system: SNB-19 CNS
[42] = system: EKVX NSCLC
[43] = system: BT-549 breast
[44] = system: HCC-2998 colon
[45] = system: NCI/ADR-RES ovarian
[46] = system: HOP-92 NSCLC
[47] = system: HCT-15 colon
[48] = system: ACHN renal
[49] = system: HL-60(TB) leukemia
[50] = system: UO-31 renal
[51] = system: M14 melanoma
[52] = system: RXF 393 renal
[53] = system: LOX IMVI melanoma
[54] = system: OVCAR-8 ovarian
[55] = system: SW-620 colon
[56] = system: RPMI-8226 leukemia
[57] = system: COLO 205 colon

CC(C)C[C@H](NC(=O)[C@H](CCc1ccccc1)NC(=O)CN1CCOCC1)C(=O)N[C@@H](Cc1ccccc1)C(=O)N[C@@H](CC(C)C)C(=O)[C@@]1(C)CO1
GI50 [1]: < 10 nM | TGI [1]: 18.3 nM | GI50 [2]: < 10 nM | TGI [2]: < 10 nM | GI50 [3]: < 10 nM | TGI [3]: 18 nM | GI50 [4]: < 10 nM | TGI [4]: < 10 nM | GI50 [5]: < 10 nM | TGI [5]: 25.7 nM | GI50 [6]: < 10 nM | TGI [6]: 24.5 nM | GI50 [7]: < 10 nM | TGI [7]: < 10 nM | GI50 [8]: < 10 nM | TGI [8]: < 10 nM | GI50 [9]: < 10 nM | TGI [9]: 21.2 nM | GI50 [10]: < 10 nM | TGI [10]: 19.5 nM | GI50 [11]: 13.2 nM | TGI [11]: 26.1 nM | GI50 [12]: < 10 nM | TGI [12]: 21.6 nM | GI50 [13]: < 10 nM | TGI [13]: 12.4 nM | GI50 [14]: 14.1 nM | TGI [14]: 33.6 nM | GI50 [15]: < 10 nM | TGI [15]: 10.8 nM | GI50 [16]: < 10 nM | TGI [16]: < 10 nM | GI50 [17]: 17.2 nM | TGI [17]: 36.8 nM | GI50 [18]: < 10 nM | TGI [18]: < 10 nM | GI50 [19]: < 10 nM | TGI [19]: < 10 nM | GI50 [20]: < 10 nM | TGI [20]: < 10 nM | GI50 [21]: < 10 nM | TGI [21]: < 10 nM | GI50 [22]: < 10 nM | TGI [22]: 19.3 nM | GI50 [23]: < 10 nM | TGI [23]: 21.5 nM | GI50 [24]: 15 nM | TGI [24]: 29.1 nM | GI50 [25]: 17.3 nM | TGI [25]: 45.3 nM | GI50 [26]: < 10 nM | TGI [26]: < 10 nM | GI50 [27]: < 10 nM | TGI [27]: < 10 nM | GI50 [28]: < 10 nM | TGI [28]: < 10 nM | GI50 [29]: 15.5 nM | TGI [29]: 33.7 nM | GI50 [30]: 15.4 nM | TGI [30]: 30.6 nM | GI50 [31]: < 10 nM | TGI [31]: < 10 nM | GI50 [32]: 18.2 nM | TGI [32]: 33.6 nM | GI50 [33]: 17.6 nM | TGI [33]: 53.9 nM | GI50 [34]: 15 nM | TGI [34]: 30.1 nM | GI50 [35]: < 10 nM | TGI [35]: 18.8 nM | GI50 [36]: 21.2 nM | TGI [36]: 54 nM | GI50 [37]: < 10 nM | TGI [37]: 16.1 nM | GI50 [38]: < 10 nM | TGI [38]: 16.5 nM | GI50 [39]: 14.6 nM | TGI [39]: 28.8 nM | GI50 [40]: 10.5 nM | TGI [40]: 23.3 nM | GI50 [41]: 12.3 nM | TGI [41]: 38.8 nM | GI50 [42]: 13.1 nM | TGI [42]: 36.2 nM | GI50 [43]: < 10 nM | TGI [43]: < 10 nM | GI50 [44]: < 10 nM | TGI [44]: 14 nM | GI50 [45]: 422 nM | TGI [45]: 1610 nM | GI50 [46]: 11.6 nM | TGI [46]: 24.3 nM | GI50 [47]: 23.9 nM | TGI [47]: 86.9 nM | GI50 [48]: 33.2 nM | TGI [48]: 109 nM | GI50 [49]: < 10 nM | TGI [49]: < 10 nM | GI50 [50]: 35.9 nM | TGI [50]: 110 nM | GI50 [51]: < 10 nM | TGI [51]: 19.1 nM | GI50 [52]: < 10 nM | TGI [52]: < 10 nM | GI50 [53]: < 10 nM | TGI [53]: < 10 nM | GI50 [54]: 14.6 nM | TGI [54]: 28 nM | GI50 [55]: < 10 nM | TGI [55]: < 10 nM | GI50 [56]: < 10 nM | TGI [56]: < 10 nM | GI50 [57]: 28.3 nM | TGI [57]: 105 nM
